According to ChEMBL document CHEMBL4033686, “Phenylbenzenesulfonates and -sulfonamides as 17β-hydroxysteroid dehydrogenase type 2 inhibitors: Synthesis and SAR-analysis” (Bioorg Med Chem Lett, 2017):

Experiments:
Type in all cases: cell-based
[1] = target: T1, 17-beta-hydroxysteroid dehydrogenase type 2 (Homo sapiens) (UniProt P37059); experiment: Inhibition of recombinant human 17beta-HSD2 expressed in HEK293 cells assessed as residual activity at 20 uM using estradiol as substrate after 10 mins in presence of radiolabeled tracer substrate by scintillation counting method relative to control
T1 sequence (whole entry): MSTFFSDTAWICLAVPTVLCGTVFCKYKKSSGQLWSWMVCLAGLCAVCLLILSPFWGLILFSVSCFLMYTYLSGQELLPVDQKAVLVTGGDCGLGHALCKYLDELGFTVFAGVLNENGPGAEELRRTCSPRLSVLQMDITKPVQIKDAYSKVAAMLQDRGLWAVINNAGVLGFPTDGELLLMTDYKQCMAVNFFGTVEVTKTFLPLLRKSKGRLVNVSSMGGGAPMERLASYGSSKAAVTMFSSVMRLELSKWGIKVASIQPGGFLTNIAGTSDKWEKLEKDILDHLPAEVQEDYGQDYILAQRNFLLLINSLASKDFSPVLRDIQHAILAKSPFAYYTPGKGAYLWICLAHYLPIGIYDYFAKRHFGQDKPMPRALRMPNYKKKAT

[2] = target: T2, 17-beta-hydroxysteroid dehydrogenase type 2 (Homo sapiens, UniProt P37059); experiment: Inhibition of recombinant human 17beta-HSD2 expressed in HEK293 cells using estradiol as substrate after 10 mins in presence of radiolabeled tracer substrate by scintillation counting method
T2 sequence (P37059 whole entry): T1 sequence (whole entry)

[3] = target: T3, 17-beta-hydroxysteroid dehydrogenase type 1 (Homo sapiens) (UniProt P14061); experiment: Inhibition of recombinant human 17beta-HSD1 expressed in HEK293 cells assessed as residual activity at 20 uM using estrone as substrate after 10 mins in presence of radiolabeled tracer substrate by scintillation counting method relative to control
T3 sequence (whole entry): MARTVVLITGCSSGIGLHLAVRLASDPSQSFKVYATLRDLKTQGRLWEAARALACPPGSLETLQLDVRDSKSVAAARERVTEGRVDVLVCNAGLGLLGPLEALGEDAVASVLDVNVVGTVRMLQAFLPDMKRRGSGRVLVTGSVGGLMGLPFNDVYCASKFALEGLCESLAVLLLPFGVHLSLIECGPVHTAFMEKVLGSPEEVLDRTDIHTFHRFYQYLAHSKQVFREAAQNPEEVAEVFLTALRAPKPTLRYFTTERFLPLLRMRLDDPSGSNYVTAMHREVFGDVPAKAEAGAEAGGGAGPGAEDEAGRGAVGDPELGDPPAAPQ

[4] = target: 11-beta-hydroxysteroid dehydrogenase 1 (Homo sapiens) (UniProt P28845); experiment: Inhibition of recombinant human 11beta-HSD1 expressed in HEK293 cells assessed as residual activity at 20 uM using cortisone as substrate after 10 mins in presence of radiolabeled tracer substrate by scintillation counting method relative to control
[5] = target: T4, 11beta-HSD2 (11-beta-hydroxysteroid dehydrogenase type 2) (Homo sapiens, UniProt P80365); experiment: Inhibition of recombinant human 11beta-HSD2 expressed in HEK293 cells assessed as residual activity at 20 uM using cortisol as substrate after 10 mins in presence of radiolabeled tracer substrate by scintillation counting method relative to control; settings: HEK293 cells expressing recombinant human 11beta-HSD2, probe cortisol, read-out: Activity
T4 sequence (P80365 whole entry): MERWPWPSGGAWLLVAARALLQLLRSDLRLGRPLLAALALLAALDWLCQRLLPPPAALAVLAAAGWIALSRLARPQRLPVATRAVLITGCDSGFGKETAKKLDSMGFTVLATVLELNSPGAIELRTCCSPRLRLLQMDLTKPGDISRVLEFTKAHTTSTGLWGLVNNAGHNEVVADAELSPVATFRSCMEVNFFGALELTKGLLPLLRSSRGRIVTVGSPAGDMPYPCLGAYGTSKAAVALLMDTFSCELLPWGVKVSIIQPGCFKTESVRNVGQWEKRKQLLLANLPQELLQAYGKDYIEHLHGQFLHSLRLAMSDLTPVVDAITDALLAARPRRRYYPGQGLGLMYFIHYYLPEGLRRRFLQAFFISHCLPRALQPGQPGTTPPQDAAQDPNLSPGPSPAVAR

Homo sapiens [6] = species: Homo sapiens; experiment: Selectivity index, ratio of compound effect for inhibition of recombinant human 17beta-HSD1 expressed in HEK293 cells assessed as residual activity to compound effect for inhibition of 17beta-HSD2 expressed in HEK293 cells assessed as residual activity
Homo sapiens [7] = species: Homo sapiens; experiment: Selectivity index, ratio of compound effect for inhibition of recombinant human 11beta-HSD1 expressed in HEK293 cells assessed as residual activity to compound effect for inhibition of 17beta-HSD2 expressed in HEK293 cells assessed as residual activity
Homo sapiens [8] = species: Homo sapiens; experiment: Selectivity index, ratio of compound effect for inhibition of recombinant human 11beta-HSD2 expressed in HEK293 cells assessed as residual activity to compound effect for inhibition of 17beta-HSD2 expressed in HEK293 cells assessed as residual activity

Chain of 11-beta-hydroxysteroid dehydrogenase 1 (Homo sapiens) (P28845 whole entry, looked up): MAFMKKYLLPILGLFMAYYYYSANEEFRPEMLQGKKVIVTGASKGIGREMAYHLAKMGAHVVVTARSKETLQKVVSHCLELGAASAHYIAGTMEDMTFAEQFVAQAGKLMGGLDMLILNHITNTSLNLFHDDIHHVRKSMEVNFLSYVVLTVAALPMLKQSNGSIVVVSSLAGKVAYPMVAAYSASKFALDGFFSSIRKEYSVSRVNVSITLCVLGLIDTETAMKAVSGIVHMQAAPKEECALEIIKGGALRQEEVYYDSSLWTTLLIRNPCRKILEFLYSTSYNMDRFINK

| Activity [1] [%] | IC50 [2] [µM] | Activity [3] [%] | Activity [4] [%] | activity at 10 min, 20 µM [5] [%] | Compound | Selectivity Index (Homo sapiens [6]) | Selectivity Index (Homo sapiens [7]) | Selectivity Index (Homo sapiens [8]) |
| --- | --- | --- | --- | --- | --- | --- | --- | --- |
| 36 | – | – | – | – | Cc1ccc(N)c(OS(=O)(=O)c2ccc(C(C)(C)C)cc2)c1 | – | – | – |
| 44 | – | – | – | – | CC(C)(C)c1ccc(S(=O)(=O)Oc2ccc(Cl)cc2N)cc1 | – | – | – |
| 33 | – | – | – | – | CC(C)(C)c1ccc(S(=O)(=O)Oc2ccccc2N)cc1 | – | – | – |
| 37 | – | – | – | – | Cc1ccc(OS(=O)(=O)c2ccc(C(C)(C)C)cc2)c(N)c1 | – | – | – |
| 86 | – | – | – | – | CC(C)(C)c1ccc(S(=O)(=O)Oc2ccc(-c3ccccc3)cc2N)cc1 | – | – | – |
| 43 | – | – | – | – | CC(C)(C)c1ccc(S(=O)(=O)Oc2ccc3ccccc3c2N)cc1 | – | – | – |
| 35 | – | – | – | – | CC(C)(C)c1ccc(S(=O)(=O)Nc2ccc(Cl)cc2N)cc1 | – | – | – |
| 13 | 4.09 | 38 | 46 | 63 | Cc1ccc(O)c(NS(=O)(=O)c2ccc(C(C)(C)C)cc2)c1 | 2.9 | 3.5 | 4.8 |
| 22 to 28 | 5.58 | 46 | 28 | 75 | CC(C)(C)c1ccc(S(=O)(=O)Nc2cc(Cl)ccc2N)cc1 | 2.1 | 1.3 | 3.4 |
| 22 | 4.4 | 35 | 24 | 62 | Cc1ccc(NS(=O)(=O)c2ccc(C(C)(C)C)cc2)c(O)c1 | 1.6 | 1.1 | 2.8 |
| 49 | – | – | – | – | Cc1cc(C)c(OS(=O)(=O)c2ccc(C(C)(C)C)cc2)c(N)c1 | – | – | – |
| 36 | – | 56 | 26 | 97 | CC(C)(C)c1ccc(S(=O)(=O)Nc2ccc(F)cc2N)cc1 | 1.6 | 0.7 | 2.7 |

The remaining lines, values behind:

| Compound | Activity [1] [%] | IC50 [2] [µM] | Activity [3] [%] | Activity [4] [%] | activity at 10 min, 20 µM [5] [%] | Selectivity Index (Homo sapiens [6]) | Selectivity Index (Homo sapiens [7]) | Selectivity Index (Homo sapiens [8]) |
| --- | --- | --- | --- | --- | --- | --- | --- | --- |
| CC(C)(C)c1ccc(S(=O)(=O)Nc2cc(Cl)ccc2O)cc1 | 6 | 0.8 | 15 | 35 | 7 | 2.5 | 5.8 | 1.2 |
| CC(C)(C)c1ccc(S(=O)(=O)Nc2ccccc2N)cc1 | 46 | – | – | – | – | – | – | – |
| CC(C)(C)c1ccc(S(=O)(=O)Nc2cc(-c3ccccc3)ccc2O)cc1 | 2 | 1.25 | 13 | 62 | 3 | 6.5 | 31 | 1.5 |
| CC(C)(C)c1ccc(S(=O)(=O)Nc2ccccc2O)cc1 | 5 | 1.23 | 41 | 37 | 83 | 8.2 | 7.4 | 16.6 |
| Cc1cc(S(=O)(=O)Nc2cccc(O)c2)c(C)cc1Cl | 10 | – | – | – | – | – | – | – |
| Cc1cc(C)c(O)c(NS(=O)(=O)c2ccc(C(C)(C)C)cc2)c1 | 18 | 5.19 | 19 | 43 | 37 | 1.1 | 2.4 | 2.1 |
| CC(C)(C)c1ccc(S(=O)(=O)Nc2cc(Cl)c(Cl)cc2N)cc1 | 11 | 4.65 | 23 | 74 | 21 | 2.1 | 6.7 | 1.9 |
| Cc1cc(N)c(NS(=O)(=O)c2ccc(C(C)(C)C)cc2)cc1C | 58 | – | – | – | – | – | – | – |
| CC(C)(C)c1ccc(S(=O)(=O)Nc2c(O)ccc3ccccc23)cc1 | 7 | 2.9 | 46 | 21 | 21 | 8.6 | 3 | 3 |
| O=c1cc(-c2ccc(O)cc2)oc2cc(O)cc(O)c12 | – | – | 11 | – | – | – | – | – |
